Key:
Test in all cases: Test B pre-/postemergence plant response
Format in all cases: in vivo
[1] = test system: wheat (Triticum aestivum); conditions: for Wheat plant response rating: 8 g ai/ha
In short: (§1)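 Preemergence and postemergence (plants 2-18 cm, 1- to 4-leaf stage) applications used test chemicals in a non-phytotoxic solvent with surfactant. Plants were held in a greenhouse 13 to 15 days, then rated visually against controls on a 0-100 scale (0 no effect, 100 complete control).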

wild oat (Avena fatua) = conditions: for Oat, Wild plant response rating: 8 g ai/ha
In short: as §1

soybean (Glycine max) = test system: soybean (Glycine max)
In short: as §1

[2] = test system: green foxtail (Setaria viridis); conditions: for Foxtail, Green plant response rating: 8 g ai/ha
In short: as §1

[3] = test system: large crabgrass (Digitaria sanguinalis); conditions: for Crabgrass, Large plant response rating: 8 g ai/ha
In short: as §1

[4] = test system: common ragweed (Ambrosia elation); conditions: for Ragweed plant response rating: 8 g ai/ha
In short: as §1

[5] = test system: common (oilseed) sunflower (Helianthus annuus); conditions: Preemergence
In short: as §1

kochia (Kochia scoparia) = conditions: for Kochia plant response rating: 8 g ai/ha
In short: as §1

[6] = test system: lambsquarters (Chenopodium album); conditions: for Lambsquarters plant response rating: 8 g ai/ha
In short: as §1

[7] = test system: morningglory (Ipomoea coccinea); conditions: for Morningglory plant response rating: 8 g ai/ha
In short: as §1

[8] = test system: surinam grass (Brachiaria decumbens); conditions: for Surinam Grass plant response rating: 8 g ai/ha
In short: as §1

[9] = test system: eastern black (E.B.) nightshade (Solanum ptycanthum); conditions: Preemergence
In short: as §1

[10] = test system: blackgrass (Alopecurus myosuroides)
In short: as §1

[11] = test system: goosegrass (Eleusine indica); conditions: for Goosegrass plant response rating: 8 g ai/ha
In short: as §1

[12] = Postemergence, 16 g ai/ha, scale 0 to 100
[13] = Postemergence, 31 g ai/ha, scale 0 to 100
[14] = Postemergence, 62 g ai/ha, scale 0 to 100, 0 no effect, 100 complete control
[15] = Preemergence, 16 g ai/ha, scale 0 to 100 (0 no effect, 100 complete control)
[16] = Preemergence, 31 g ai/ha, scale 0 to 100 (0 no effect, 100 complete control)
[17] = Preemergence, 62 g ai/ha, 0 to 100 scale, 0 no effect, 100 complete control
[18] = Preemergence, 62 g ai/ha, scale 0 to 100
[19] = 8 g ai/ha, postemergence, 0-100 scale
[20] = Preemergence, 31 g ai/ha, 0 to 100 scale, 0 no effect, 100 complete control
[21] = 16 g ai/ha, scale 0 to 100 (0 no effect, 100 complete control)
[22] = 31 g ai/ha, scale 0 to 100 (0 no effect, 100 complete control)

Cn1ncc(O)c(-n2nc(-c3ccc(Cl)cc3)cc2C2CC2)c1=O [Compound 45]
Wheat plant response rating ([1]; postemergence, 0-100 scale): 60
Plant response rating, Wheat [1, 12]: 85
Plant response rating, Wheat [1, 13]: 85
Plant response rating, Wheat [1, 14]: 98
Plant response rating, Wheat [1, 15]: 30
Plant response rating, Wheat [1, 16]: 70
Plant response rating, Wheat [1, 17]: 95
Wheat plant response rating ([1]; Preemergence, scale 0 to 100): 0
Oat, Wild plant response rating (wild oat (Avena fatua); postemergence, 0-100 scale): 90
Plant response rating, Oat, Wild (wild oat (Avena fatua); [12]): 98
Plant response rating, Oat, Wild (wild oat (Avena fatua); [13]): 100
Plant response rating, Oat, Wild (wild oat (Avena fatua); [14]): 100
Plant response rating, Oat, Wild (wild oat (Avena fatua); [15]): 80
Plant response rating, Oat, Wild (wild oat (Avena fatua); [16]): 90
Plant response rating, Oat, Wild (wild oat (Avena fatua); [18]): 95
Oat, Wild plant response rating (wild oat (Avena fatua); Preemergence, scale 0 to 100): 15
Soybean plant response rating (soybean (Glycine max); [19]): 0
Plant response rating, Soybean (soybean (Glycine max); [12]): 0
Plant response rating, Soybean (soybean (Glycine max); [13]): 0
Plant response rating, Soybean (soybean (Glycine max); [14]): 0
Plant response rating, Soybean (soybean (Glycine max); [15]): 0
Plant response rating, Soybean (soybean (Glycine max); [18]): 65
Foxtail, Green plant response rating ([2]; postemergence, 0-100 scale): 60
Plant response rating, Foxtail, Green [2, 12]: 95
Plant response rating, Foxtail, Green [2, 13]: 100
Plant response rating, Foxtail, Green [2, 14]: 100
Plant response rating, Foxtail, Green [2, 15]: 100
Plant response rating, Foxtail, Green [2, 20]: 100
Plant response rating, Foxtail, Green [2, 18]: 100
Foxtail, Green plant response rating ([2]; Preemergence, scale 0 to 100): 100
Crabgrass, Large plant response rating ([3]; postemergence, 0-100 scale): 65
Plant response rating, Crabgrass, Large [3, 12]: 80
Plant response rating, Crabgrass, Large [3, 13]: 100
Plant response rating, Crabgrass, Large [3, 14]: 100
Plant response rating, Crabgrass, Large [3, 15]: 0
Plant response rating, Crabgrass, Large [3, 20]: 0
Plant response rating, Crabgrass, Large [3, 18]: 0
Crabgrass, Large plant response rating ([3]; Preemergence, scale 0 to 100): 0
Ragweed plant response rating ([4]; postemergence, 0-100 scale): 0
Plant response rating, Ragweed [4, 12]: 0
Plant response rating, Ragweed [4, 13]: 0
Plant response rating, Ragweed [4, 14]: 0
Plant response rating, Ragweed [4, 15]: 0
Plant response rating, Ragweed [4, 16]: 0
Plant response rating, Ragweed [4, 18]: 0
Ragweed plant response rating ([4]; Preemergence, scale 0 to 100): 0
Plant response rating, Sunflower [5, 21]: 0
Plant response rating, Sunflower [5, 22]: 0
Plant response rating, Sunflower ([5]; 62 g ai/ha, scale 0 to 100): 0
Sunflower plant response rating ([5]; 8 g ai/ha, scale 0 to 100): 0
Kochia plant response rating (kochia (Kochia scoparia); postemergence, 0-100 scale): 0
Plant response rating, Kochia (kochia (Kochia scoparia); [12]): 0
Plant response rating, Kochia (kochia (Kochia scoparia); [13]): 0
Plant response rating, Kochia (kochia (Kochia scoparia); [14]): 0
Plant response rating, Kochia (kochia (Kochia scoparia); [15]): 0
Plant response rating, Kochia (kochia (Kochia scoparia); [20]): 0
Plant response rating, Kochia (kochia (Kochia scoparia); [18]): 0
Kochia plant response rating (kochia (Kochia scoparia); Preemergence, scale 0 to 100): 0
Lambsquarters plant response rating ([6]; postemergence, 0-100 scale): 0
Plant response rating, Lambsquarters [6, 12]: 0
Plant response rating, Lambsquarters [6, 13]: 0
Plant response rating, Lambsquarters [6, 14]: 0
Plant response rating, Lambsquarters [6, 15]: 0
Plant response rating, Lambsquarters [6, 20]: 0
Plant response rating, Lambsquarters [6, 18]: 0
Lambsquarters plant response rating ([6]; Preemergence, scale 0 to 100): 0
Morningglory plant response rating ([7]; postemergence, 0-100 scale): 0
Plant response rating, Morningglory [7, 12]: 0
Plant response rating, Morningglory [7, 13]: 0
Plant response rating, Morningglory [7, 14]: 0
Plant response rating, Morningglory [7, 15]: 0
Plant response rating, Morningglory [7, 16]: 0
Plant response rating, Morningglory [7, 18]: 0
Morningglory plant response rating ([7]; Preemergence, scale 0 to 100): 0
Surinam Grass plant response rating ([8]; postemergence, 0-100 scale): 75
Plant response rating, Surinam Grass [8, 12]: 85
Plant response rating, Surinam Grass [8, 13]: 98
Plant response rating, Surinam Grass [8, 14]: 100
Plant response rating, Surinam Grass [8, 15]: 20
Plant response rating, Surinam Grass [8, 16]: 40
Plant response rating, Surinam Grass [8, 17]: 90
Surinam Grass plant response rating ([8]; Preemergence, scale 0 to 100): 0
Plant response rating, Nightshade, E. B. [9, 21]: 0
Plant response rating, Nightshade, E. B. [9, 22]: 0
Plant response rating, Nightshade, E. B. ([9]; 62 g ai/ha, scale 0 to 100): 0
Nightshade, E. B. plant response rating ([9]; 8 g ai/ha, scale 0 to 100): 0
Blackgrass plant response rating [10, 19]: 0
Plant response rating, Blackgrass [10, 12]: 20
Plant response rating, Blackgrass [10, 13]: 85
Plant response rating, Blackgrass [10, 14]: 90
Plant response rating, Blackgrass [10, 15]: 98
Plant response rating, Blackgrass [10, 20]: 100
Plant response rating, Blackgrass [10, 18]: 100
Goosegrass plant response rating ([11]; postemergence, 0-100 scale): 65
Plant response rating, Goosegrass [11, 12]: 70
Plant response rating, Goosegrass [11, 13]: 80
Plant response rating, Goosegrass [11, 14]: 95
Plant response rating, Goosegrass [11, 15]: 0
Plant response rating, Goosegrass [11, 20]: 0
Plant response rating, Goosegrass [11, 18]: 0
Goosegrass plant response rating ([11]; Preemergence, scale 0 to 100): 0

From patent publication US20100267561A1, “HERBICIDAL PYRIDAZINONE DERIVATIVES” (priority 2007, published 2010)
